Experiment [1] addresses truncated CRBN (319-427) (Homo sapiens (Human), UniProt Q96SW2). The experiment can be described thus: Fluorescence binding assay (fluorescence quenching), affinity to E3-CEREBLON (CRBN)-ubiquitin ligase. Conditions: ubiquitination moiety, pH 6.5. The method, then:
Fluorescence quenching end point measurements were performed in black polystyrene 384-plates on Tecan Safire monochromator reader with the following settings: excitation 280 nm; excitation bandwidth 10.0 nm; emission collection 340 nm; emission bandwidth 20.0 nm; high sensitivity flash mode; integration time 40 μS; delay 0 μm. All measurements were done in duplicates; GraphPad Prism 5.03 was used for data evaluation, curve fitting, plotting and determination of IC50 values.
Serial dilutions of each tested ligands were mixed with truncated CRBN (319-427) to a final volume of 25 μL in the assay buffer (20 mM sodium phosphate buffer, pH 6.5, with 150 mM sodium chloride). The final concentration of CRBN in all assay will be 5-10 μM with DMSO level at 4%. A control lanes were prepared with only tested ligands without the addition of CRBN, top up with assay buffer to 25 μL. Plates were incubated for 5 minutes and analyzed using the monochromator plate reader.
IC50 is the compound concentration that causes 50% quenching of the desired activity.

The target in experiment [2] is CRBN (truncated, residues 319-427) (Homo sapiens (Human), UniProt Q96SW2). The experiment is described as follows: NMR binding experiments (1H-15N HSQC titration). Conditions: 15N-labeled CRBN, ligand to CRBN ratios 0, 0.5, 1.0 and 1.5, 25° C. The procedure:
All the NMR experiments were carried out on a Bruker magnet with proton frequency of 600 MHz or 700 MHz equipped with a cryo-probe. The experiments were performed at 25° C. The ^1H-^15N HSQC spectrum was collected using a standard pulse from the pulse library (Topspin version 2.1). To test whether a developed CRBN binder interacts with CRBN, titration of the compound to ^15N-labeled CRBN was carried out. The ^1H-^15N HSQC spectra of mixtures in which ligand to CRBN ratios are 0, 0.5, 1.0 and 1.5 were collected and compared. The data were collected using Topspin (ver 2.1) provided with equipment. The data were processed with topspin (ver 2.1), NMRPipe (Delaglio et al. 1995) and visualized using NMRView (Johnson 2004). The truncated CRBN: residues 319-427 was used in the NMR experiments.

“Also recorded” adds a separate entry of the source.

Chain of CRBN (truncated, residues 319-427) (Q96SW2 319-427): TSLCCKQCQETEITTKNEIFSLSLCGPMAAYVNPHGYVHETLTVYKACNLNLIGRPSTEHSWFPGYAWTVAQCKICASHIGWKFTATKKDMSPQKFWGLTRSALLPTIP
Chain of truncated CRBN (319-427) (Q96SW2 319-427): as above

In experiment [1], `Nc1cc(-c2ccc3c(c2)NC(=O)C3)ccn1` [Compound 011, 6-(2-aminopyridin-4-yl)indolin-2-one] registered an IC50 of 100 to 300 µM. The “binding to CRBN in HSQC titration experiments” value (shortened to “binding to CRBN”) in experiment [2] is given as “bind to protein CRBN; also recorded: clear binding”.

In experiment [1], `Nc1cnccc1-c1ccc2c(c1)NC(=O)C2` [Compound 012, 6-(3-aminopyridin-4-yl)indolin-2-one] returned an IC50 of over 300 µM. The “binding to CRBN” value in experiment [2] is reported as “bind to protein CRBN; also recorded: clear binding”.

As to `Nc1ccc(-c2ccc3c(c2)NC(=O)C3)cn1` [Compound 013, 6-(6-aminopyridin-3-yl)indolin-2-one], in experiment [1], the IC50 is over 300 µM. Moreover, the “binding to CRBN” value in experiment [2] is reported as “bind to protein CRBN; also recorded: clear binding”.

Regarding `Nc1cc(-c2ccc3c(c2)CC(=O)N3)ccn1` [Compound 040, 5-(2-aminopyridin-4-yl)indolin-2-one], the IC50 in experiment [1] lay within 100 to 300 µM. Moreover, in experiment [2], the “binding to CRBN” value was “bind to protein CRBN; also recorded: clear binding”.

Regarding `Nc1ncccc1-c1ccc2c(c1)CC(=O)N2` [Compound 045, 5-(2-aminopyridin-3-yl)indolin-2-one], the IC50 in experiment [1] is 100 to 300 µM. Also, the “binding to CRBN” value in experiment [2] is recorded as “bind to protein CRBN; also recorded: clear binding”.

The values above are taken from US11542274B1, “Therapeutic compounds and methods of use thereof” (AGENCY FOR SCIENCE, TECHNOLOGY AND RESEARCH (A*STAR), priority 2019, dated 2023).
